{"source": "patent US8716184B2", "about": "“Herbicidal composition comprising the hydrates of saflufenacil and glyphosate or glufosinate” (Bayer Cropscience AG, priority 2010, dated 2014)", "assay_type_in_all_cases": "in vivo", "key": {"Cirsium Arvense": {"tested_on": "Cirsium Arvense", "test": "Herbicidal action on Cirsium arvense (Table 2a)", "experimental": "(§1) The herbicidal efficacy of the active compounds or active compound mixtures was scored visually by comparing the treated pots (soil) with untreated controls. The damage and development of all above-ground plant parts was recorded. Scoring was done on a percentage scale (example values: 100% action=all plants dead or not emerged; 50% action=50% of the plants and green plant parts dead or not emerged; 0% action=no discernible action=like control plot). The score figures of in any case 2 repetitions (pots) were averaged.\n(§2) When applying the combinations according to the invention, herbicidal effects are frequently observed on a harmful plant species which exceed the formal total of the effects of the herbicides present when these are applied by themselves. Alternatively, it is observed in some cases that a lower application rate is required for the herbicide combination in order to achieve the same effect on a harmful plant species in comparison with the individual products. […] When the data observed already exceed the formal total of the data in the experiments with individual applications, they likewise exceed the expected value according to Colby, which is calculated using the formula below and is likewise regarded as an indication of synergism (cf. S. R. Colby; in Weeds 15 (1967) pp. 20 to 22): E=A+B−(A·B/100)"}, "Digitaria sanguinalis": {"tested_on": "Digitaria sanguinalis", "test": "Herbicidal action on Digitaria sanguinalis (Table 1)", "experimental": "as §1, §2"}, "Abutilon teophrastis": {"tested_on": "Abutilon teophrastis", "test": "Herbicidal action, dicotyledonous weeds, Abutilon teophrastis (Table 2b)", "conditions": "applied at 2-3 leaf stage, scoring 28 days after application", "experimental": "as §1\n(§3) Seeds or rhizome pieces of monocotyledonous and dicotyledonous weeds are placed in sandy loam in pots, covered with soil and grown in the greenhouse under good growth conditions (temperature, atmospheric humidity, water supply). Three weeks after sowing, the test plants are treated in the three-leaf stage with the compositions according to the invention. The compositions according to the invention, formulated as wettable powders or emulsion concentrates, are sprayed onto the green plant parts in various dosages using an application rate of 300 to 800 L of water/ha (converted). After the test plants have remained in the greenhouse under optimum growth conditions for about 3 to 4 weeks, the effect of the preparations is scored visually in comparison with untreated controls (scoring as in Example 1). […]"}, "Euphorbia heterophylla": {"tested_on": "Euphorbia heterophylla", "test": "Herbicidal action, dicotyledonous weeds, Euphorbia heterophylla (Table 2b)", "conditions": "applied at 2-3 leaf stage, scoring 28 days after application", "experimental": "as §1, §3"}, "Bidens pinata": {"tested_on": "Bidens pinata", "test": "Herbicidal action on Bidens pinata (Table 3)", "experimental": "as §1, §2"}, "Setaria faberii": {"tested_on": "Setaria faberii", "test": "Herbicidal action, monocotyledonous weeds, Setaria faberii (Table 2c)", "conditions": "applied at 1-2 leaf stage, scoring 28 days after application", "experimental": "as §1\nas §3, with “Three weeks after sowing, the test plants are treated in the three-leaf stage with the compositions according to the invention.” left out, “1). The compositions according to the invention also have good herbicidal post-emergence action against a broad spectrum of economically important weed grasses and broad-leaf weeds.” for “1).”"}, "Setaria viridis": {"tested_on": "Setaria viridis", "test": "Herbicidal action, monocotyledonous weeds, Setaria viridis (Table 2c)", "conditions": "applied at 1-2 leaf stage, scoring 28 days after application", "experimental": "as §1\nas §3, with “Three weeks after sowing, the test plants are treated in the three-leaf stage with the compositions according to the invention.” left out, “1). The compositions according to the invention also have good herbicidal post-emergence action against a broad spectrum of economically important weed grasses and broad-leaf weeds.” for “1).”"}, "Xanthium strumarium": {"tested_on": "Xanthium strumarium", "test": "Herbicidal action, dicotyledonous weeds, Xanthium strumarium (Table 2b)", "conditions": "applied at 2-3 leaf stage, scoring 28 days after application", "experimental": "as §1, §3"}}}
{"smiles": "CC(C)N(C)S(=O)(=O)NC(=O)c1cc(-n2c(=O)cc(C(F)(F)F)n(C)c2=O)c(F)cc1Cl", "note": "[Compound of the formula (I) (amorphous), 2-chloro-5-[3,6-dihydro-3-methyl-2,6-dioxo-4-(trifluoromethyl)-1-(2H)-pyrimidinyl]-4-fluoro-N-[[methyl-(1-methylethyl)amino]sulfonyl]benzamide]", "values": [{"measurement": "Herbicidal action [%] Cirsium Arvense", "setting": "Cirsium Arvense; dose 25 g AS/ha", "value": 55, "unit": "%"}, {"measurement": "Herbicidal action [%] on Digitaria sanguinalis", "setting": "Digitaria sanguinalis; dose 25 g AS/ha", "value": 0, "unit": "%"}]}
{"smiles": "CC(C)N.O=C(O)CNCP(=O)(O)O", "note": "[Glyphosate-isopropylammonium (A1b), glyphosate-isopropylammonium]", "values": [{"measurement": "Herbicidal action [%] Abutilon teophrastis", "setting": "Abutilon teophrastis; dose 100 g AS/ha", "value": 10, "unit": "%"}, {"measurement": "Herbicidal action [%] Euphorbia heterophylla", "setting": "Euphorbia heterophylla; dose 100 g AS/ha", "value": 10, "unit": "%"}, {"measurement": "Herbicidal action [%] Cirsium Arvense", "setting": "Cirsium Arvense; dose 675 g AS/ha", "value": 25, "unit": "%"}, {"measurement": "Herbicidal action [%] Bidens pinata", "setting": "Bidens pinata; dose 100 g AS/ha", "value": 10, "unit": "%"}, {"measurement": "Herbicidal action [%] Setaria faberii", "setting": "Setaria faberii; dose 100 g AS/ha", "value": 10, "unit": "%"}, {"measurement": "Herbicidal action [%] Setaria viridis", "setting": "Setaria viridis; dose 100 g AS/ha", "value": 20, "unit": "%"}, {"measurement": "Herbicidal action [%] Xanthium strumarium", "setting": "Xanthium strumarium; dose 100 g AS/ha", "value": 10, "unit": "%"}]}
{"smiles": "CP(=O)(O)CCC(N)C(=O)O", "note": "(centres unmarked) [Glufosinate-ammonium (A2a), glufosinate-ammonium]", "values": [{"measurement": "Herbicidal action [%] on Digitaria sanguinalis", "setting": "Digitaria sanguinalis; dose 450 g AS/ha", "value": 15, "unit": "%"}]}
{"smiles": "COCc1cnc(C2=NC(C)(C(C)C)C(=O)N2)c(C(=O)O)c1", "note": "(centres unmarked) [Imazamox (C18), imazamox]", "values": [{"measurement": "Herbicidal action [%] Bidens pinata", "setting": "Bidens pinata; dose 0.5 g AS/ha", "value": 0, "unit": "%"}, {"measurement": "Herbicidal action [%] Bidens pinata", "setting": "Bidens pinata; dose 0.5 g AS/ha, listed as imazamox (C18)", "value": "no herbicidal action"}]}
{"smiles": "CC(C)N(C)S(=O)(=O)NC(=O)c1cc(-n2c(=O)cc(C(F)(F)F)n(C)c2=O)c(F)cc1Cl", "note": "[Hydrate of the compound of the formula (I) = (Ba)] [2-chloro-5-[3,6-dihydro-3-methyl-2,6-dioxo-4-(trifluoromethyl)-1-(2H)-pyrimidinyl]-4-fluoro-N-[[methyl-(1-methylethyl)amino]sulfonyl]benzamide]", "values": [{"measurement": "Herbicidal action [%] Abutilon teophrastis", "setting": "Abutilon teophrastis; dose 6.25 g AS/ha", "value": 75, "unit": "%"}, {"measurement": "Herbicidal action [%] Euphorbia heterophylla", "setting": "Euphorbia heterophylla; dose 6.25 g AS/ha", "value": 30, "unit": "%"}, {"measurement": "Herbicidal action [%] Cirsium Arvense", "setting": "Cirsium Arvense; dose 25 g AS/ha", "value": 45, "unit": "%"}, {"measurement": "Herbicidal action [%] on Digitaria sanguinalis", "setting": "Digitaria sanguinalis; dose 25 g AS/ha", "value": 0, "unit": "%"}, {"measurement": "Herbicidal action [%] Bidens pinata", "setting": "Bidens pinata; dose 6.25 g AS/ha", "value": 40, "unit": "%"}, {"measurement": "Herbicidal action [%] Setaria faberii", "setting": "Setaria faberii; dose 6.25 g AS/ha", "value": 30, "unit": "%"}, {"measurement": "Herbicidal action [%] Setaria viridis", "setting": "Setaria viridis; dose 6.25 g AS/ha", "value": 25, "unit": "%"}, {"measurement": "Herbicidal action [%] Xanthium strumarium", "setting": "Xanthium strumarium; dose 6.25 g AS/ha", "value": 30, "unit": "%"}]}
